The values below come from patent US12168013B2, “Antiviral prodrugs and nanoformulations thereof” (Board of Regents of the University of Nebraska, priority 2018, dated 2024).

In brackets after ≈: the same amount, converted by molar mass. Several values for one entry are separate records, joined by “and”; a condition that tells them apart may be missing. Equal values may be shown once.

The subject of one data set is HIV-1ADA. Description: Half-maximum effective concentration (EC50) assay, HIV-1 RT activity in MDM. The class given is cell-based. The settings on record: HIV-1ADA MOI 0.1, 10 days. How it is done:
MDMs were plated in clear flat-bottom 24-well plates at a density of 0.8×10^6 cells/well. […] Following treatment, cells were washed with PBS and cultured in fresh culture medium with half-media replacement every other day. At 1, 5, 10, 15, 20, 25 and 30 days after the treatment, the cells were infected with HIV-1ADA (a macrophage tropic viral strain) at a multiplicity of infection (MOI) of 0.1 infectious particles per cell for 16 hours. Following infection period, MDM were washed with PBS and replenished with fresh media. Cells were cultured for next ten days with half-media replacement every other day, and the full media replacement on the 8th day. The culture media was collected on the 10th day after infection for the measurement of HIV-1 RT activity (Kalter, et al., J. Immunol. (1991) 146:3396-3404; Nowacek, et al., J. Neuroimmune Pharm. (2010) 5:592-601). The extent of infection was expressed as a percent of RT activity by infected MDM that were not treated. Cells were fixed in 2% PFA, and expression of HIV-1 p24 antigen was determined by immunocytochemistry (Nowacek, et al., J. Neuroimmune Pharm. (2010) 5:592-601).
MDM were plated in clear flat-bottom 96-well plates (0.08×10^6 cells/well). […] After 4 hours of viral challenge, cells were washed and given fresh media containing drug (0.1-1000 nM). Subsequently, cell supernatants were collected 10 days later and assayed for HIV-1 RT activity as described above.

Another data set deals with HIV-1. The settings on record: protein-adjusted; cited from earlier work.
The nature of another data set: Aqueous solubility. The class given is physicochemical. The settings on record: optima water, room temperature; for solubility at 24 h: thermodynamic from solid; for aqueous solubility: 24 hours. Here is the method: The aqueous solubility of CAB, MCAB, M2CAB and M3CAB in optima water was determined by adding the excess drug or prodrug powder in 1 mL water to make the saturated aqueous solution. The mixture was stirred for 24 hours at room temperature. Further, the solution was centrifuged at 14000 rpm for 10 minutes to pellet the undissolved powder. The supernatant was collected, lyophilized and dissolved in methanol for the drug content analysis by UPLC UV/Vis.

Another data set can be described thus: 1-octanol solubility. The settings on record: organic solvent or mixture.
The conditions of data set [1]: after oral administration; cited from earlier work.
Data set [2] is described as follows: Chemical stability at acidic, neutral and basic pH. The class given is physicochemical. The conditions noted are these: for prodrug hydrolysis: 24 hours. How it is done:
The stability of MCAB, M2CAB and M3CAB in acidic (pH 1), basic (pH 11) and neutral (pH 7) conditions at room temperature and elevated temperature (37° C.) was determined. The stock solution of each prodrug was prepared in DMSO at a concentration of 1 mg/mL. For acidic, basic and neutral assays, 100 μL of stock solution of each prodrug was added to 1900 μL of 0.1 M HCl, 0.1 M NaOH or optima-grade water (pH adjusted to 7), respectively. Samples were then incubated at room temperature and […] under shaking conditions (Innova® 42 shaker incubator, 150 rpm). Samples were withdrawn at 0, 2, 4, 8 and 24 hours and stored at −80° C. Later, samples were analyzed for drug content by UPLC-UV/Vis.

Data set [3] is described as follows: Plasma cleavage drug hydrolysis kinetics. The conditions noted are these: for prodrug cleavage in plasma: plasma of all species tested. The class given is in vitro ADME, mouse, rat, rabbit, monkey, dog, and human. How it is done:
The hydrolysis kinetics of MCAB, M2CAB and M3CAB and relative release of active drug were determined in plasma of different species (mouse, rat, rabbit, monkey, dog, and human). MCAB, M2CAB or M3CAB (1 μM) were incubated in 100 μL plasma at 37° C. At different time points, 1 mL acidified methanol (0.1% formic acid and 25 mM ammonium formate to avoid further prodrug hydrolysis) was added to each sample and vortexed for 3 minutes to stop the reaction. For 0-minute time-point, a 100 μL ice cold plasma was spiked with prodrug stock solution, and 1 ml of ice cold acidic methanol was added immediately. Following the addition of methanol, samples were centrifuged at 15,000 g for 10 minutes, and collected supernatant was analyzed for drug content by UPLC-MS/MS (Waters Xevo TQ-XS).

Data set [4] in a line: PK and biodistribution in NSG mice. It is filed as in vivo.
Method: Drug levels from plasma and tissues were assayed by UPLC-MS/MS. Drug levels in plasma were monitored weekly.
Following injection, blood samples were collected into heparinized tubes at day 1 post-administration and then weekly up to day 364 by cheek puncture (submandibular vein, MEDIpoint, Inc., Mineola, NY). Collected blood (25 μL) was immediately diluted into 1 mL ACN and stored at −80° C. until drug measurements. Remaining blood samples were centrifuged at 2,000 g for 8 minutes for plasma collection. Plasma was collected and stored at −80° C. for analysis of drug contents. At day 14, 28, 42 and 364 following administration, animals were humanly euthanized by isoflourane inhalation, followed by cervical dislocation. Spleen, lymph nodes, liver, lung, gut, kidney, brain, vaginal tissue, and rectal tissue were collected for quantitation of CAB and prodrug concentrations. CAB, MCAB, M2CAB and M3CAB were quantitated in mouse plasma, blood and tissues by UPLC-MS/MS using a Waters ACQUITY H-class UPLC (Waters, Milford, MA, USA) connected to a Xevo TQ-S micro mass spectrometer. All solvents for sample processing and UPLC-MS/MS analysis were LCMS-grade (Fisher). For plasma and blood samples, 25 μL of sample was added into 1 mL acetonitrile (ACN) spiked with 10 μL internal standard (IS). d3-Dolutegravir (d3-DTG), myristoylated dolutegravir (MDTG), and stearoylated darunavir (SDRV), at a final concentration of 200, 20 and 20 ng/mL, respectively, were used as ISs for CAB, MCAB and M2CAB/M3CAB analyses, respectively. Samples were vortexed and centrifuged at 17,000×g for 10 minutes at 4° C. […] For tissue drug quantitation, 3-200 mg of sample was homogenized in 4-29 volumes of 0.1% v/v formic acid and 2.5 mM ammonium formate containing 90% methanol. […] For CAB quantitation, chromatographic separation of 10 μL CAB sample was performed on a Waters ACQUITY UPLC BEH Shield RP18 column (1.7 μm, 2.1 mm×100 mm) using a 10-minute gradient of mobile phase A (7.5 mM ammonium formate in water, adjusted to pH 3 using formic acid) and mobile phase B (100% ACN) at a flow rate of 0.25 mL/minute. […]
The mark [5] stands for this setting: Human immunodeficiency virus 1, 240 h.

For `C[C@H]1CO[C@@H]2Cn3cc(C(=O)NCc4ccc(F)cc4F)c(=O)c(O)c3C(=O)N12` [CAB, cabotegravir], in the data set with HIV-1ADA (setting [5]), the EC50 (as a rule, the midpoint of the concentration-response curve) was 28.4 nM. Also, in the data set on HIV-1, the “4×PA-IC90” value is 0.66 µg/mL and 0.664 µg/mL; the PA-IC90 was 0.166 µg/mL. Also, the concentration in solution in “Aqueous solubility” (solubility at 24 h) was 12.1 ± 0.41 µg/mL (≈ 29.9 µM). Further, the solubility (usually the dissolved amount per volume that the medium holds) in “1-octanol solubility” is 90 ± 2 µg/mL (≈ 222 µM). The systemic half-life entry in data set [1] is “approximately 40 hours”.

With `CCCCCCCCCCCCCCCCCC(=O)Oc1c2n(cc(C(=O)NCc3ccc(F)cc3F)c1=O)C[C@H]1OC[C@H](C)N1C2=O` [M2CAB], in the data set on HIV-1ADA (setting [5]), the EC50 is 44.7 nM. The prodrug hydrolysis in data set [2] (37° C., acidic (pH 1)) is on record as over 95%; in data set [2] (37° C., neutral (pH 7)), 28%; in data set [2] (room temperature, acidic (pH 1)), 19%; in data set [2] (room temperature, basic (pH 11)), “completely hydrolyzed”; in data set [2] (room temperature, neutral (pH 7)) it was 24%. In data set [2] (37° C., basic (pH 11)), the “time to complete hydrolysis” value is at most 2 h. In the data set “Aqueous solubility”, this compound registered a solubility at 24 h of 1.91 ± 0.23 µg/mL (≈ 2.84 µM). Moreover, the “prodrug cleavage in plasma” value in data set [3] (by 2 hours, average) is 75%; in data set [3] (by 6 hours, average), 80%. Further, in the data set “1-octanol solubility”, the solubility came out at 2640 ± 20 µg/mL (≈ 3930 µM). In addition, the concentration at 1 day in data set [4] (female, NSG, mouse, whole blood, intramuscular, 45 mg/kg CAB-equivalents, day 1 post-injection, read-out: prodrug concentration in blood) came to 31.3 ng/mL.

`CCCCCCCCCCCCCC(=O)Oc1c2n(cc(C(=O)NCc3ccc(F)cc3F)c1=O)CC1OCC(C)N1C2=O` (centres unmarked) [MCAB]: the EC50 in the data set on HIV-1ADA was found to be 34.2 nM. In “Aqueous solubility”, the aqueous solubility (usually how much of the substance goes into solution per volume) was determined as 2.83 ± 1.37 µg/mL (≈ 4.6 µM). Also, the “prodrug cleavage in plasma” value in data set [3] (within 30 minutes, 37° C., 1 μM) was “more than 85%”. Besides, the “prodrug concentration in blood” value in data set [4] (day 1 post-injection) was determined as 22 ng/mL. The “prodrug levels in tissues” value in data set [4] (day 364) is given as “undetectable”.

In the data set with HIV-1ADA, `CCCCCCCCCCCCCCCCCCCCCC(=O)Oc1c2n(cc(C(=O)NCc3ccc(F)cc3F)c1=O)CC1OCC(C)N1C2=O` (centres unmarked) [M3CAB] returned a concentration for a half-maximal effect (EC50) of 51.1 nM. For the same compound, the aqueous solubility in “Aqueous solubility” turned out to be 1.51 ± 0.7 µg/mL (≈ 2.07 µM). The “prodrug remaining in plasma” value in data set [3] (after 24 hours of incubation) is “around 50%”.
